Read-outs that look alike come from different tables or passages of the source. Bridge positions count the residues as written; N and C are the ends. Square brackets hold non-standard residues; d marks the D form. Ends that are not written are not given here. I, II: the chains in the order shown. dPra = C#CC[C@@H](N)C(=O)O; C8N3 = not defined here
Assays:
Akt-S473E [1] = conditions: [2H10] antibody directed toward the C-terminus
From the text: Immobilized anchor, biligand, and triligand were probed with varying concentrations of […]. Binding was detected by an anti-Akt1 monoclonal antibody ([2H10]) followed by an anti-mouse secondary antibody-HRP conjugate. The fraction bound was normalized and plotted against the concentration of Akt-S473E on a log scale.
The C-terminus is effectively on the “backside” of the kinase domain, opposite the active site.

Akt-S473E [2] = experiment: ELISA with immobilized Akt-S473E, relative affinity of biotinylated ligands; type: binding, H. sapiens; conditions: triligand versus biligand
Protocol: Akt-S473E was immobilized on Ni-NTA plates and incubated with varying concentrations of biotinylated peptide. All values were normalized to the binding observed at saturation.
The affinity of the anchor ligand, biligand, and triligand developed in Example 1 was determined by ELISA with immobilized Akt-S473E.
3 μg of Akt-S473E was added to each well in a HisSorb Ni-NTA plate (Qiagen) in 50 μL of ELISA blocking buffer (25 mM Tris-Cl (pH=7.5), 150 mM NaCl, 10 mM MgCl2, 0.1% (v/v) Tween-20, and 4 mg/mL BSA). 50 μL of imidazole blocking buffer (25 mM Tris-Cl (pH=7.5), 150 mM NaCl, 10 mM MgCl2, 0.1% (v/v) Tween-20, 100 mM imidazole, and 4 mg/mL BSA) was added to the control wells. After 18 hours at 4° C., the wells were washed with ELISA blocking buffer and 50 μL of each ligand dilution was added in ELISA blocking buffer. The ligands were bound at 4° C. for 120 minutes followed by three washed in ELISA blocking buffer. 50 μL of horseradish peroxidase-conjugated streptavidin (SA-HRP, Thermo) was added (1:5000 dilution in ELISA blocking buffer) and incubated for 70 minutes at 4° C. […] 50 μL of peroxidase substrate (KPL) was added to generate the final signal which was quenched in 1 M H2SO4 and quantitated on a 96-well plate reader at X=450 nm. The Net A450 was calculated by subtracting the A450 of each blank well (No Akt-S473E) from the experimental well. […]

GSK3β = target: T1, GSK3β (Homo sapiens, UniProt P49841); experiment: Specificity ELISA, immobilized ligand probed with His-tagged kinases; conditions: A450 normalized to Akt1-S473E binding
T1 construct: a set of His-tagged active protein kinase domains from the AGC family; purchased Invitrogen
T1 sequence (P49841 56-340 limits assumed, species assumed): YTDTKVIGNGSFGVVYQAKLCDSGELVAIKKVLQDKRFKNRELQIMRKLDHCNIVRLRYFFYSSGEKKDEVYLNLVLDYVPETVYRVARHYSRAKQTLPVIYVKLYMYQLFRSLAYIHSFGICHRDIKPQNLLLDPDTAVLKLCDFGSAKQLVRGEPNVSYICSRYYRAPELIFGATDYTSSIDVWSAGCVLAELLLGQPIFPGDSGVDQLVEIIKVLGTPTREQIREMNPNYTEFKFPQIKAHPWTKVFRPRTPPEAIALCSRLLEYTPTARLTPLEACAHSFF
Protocol: (§1) Biotinylated ligand was immobilized on Streptavidin plates and probed with 25 nM His-tagged kinase followed by anti-Histag antibody-HRP conjugate. Values represent the mean A450 obtained from three experiments after normalization to Akt1-S473E binding. The error bars show the standard error.
(§2) The specificity of the anchor ligand, biligand, and triligand developed in Example 1 was analyzed using a battery of protein kinases. […] Akt1-S473E was expressed and purified as described above.
(§3) The relative affinity of each kinase was determined by probing with an anti-His6 antibody and normalizing the response to Akt1-S473E. All proteins were diluted in Akt blocking buffer to a final concentration of 24 nM prior to use. Ligands were diluted in Akt blocking buffer to a final concentration of 2.5 μM prior to use. 100 μL of each ligand (250 pmol) was added to each well of a HBC streptavidin-coated 96-well plate. The ligands were bound at 4° C. for 1 hour followed by addition of D-biotin to a final concentration of 500 μM. After 10 minutes at 4° C., the wells were washed three times with Akt blocking buffer and blocked overnight in 5% non-fat milk.
(§4) The wells were washed three times in Akt blocking buffer and 50 μL of active protein was applied to each well. After binding for 120 minutes at 4° C., the wells were washed three times in Akt blocking buffer to remove unbound protein. 50 μL of horseradish peroxidase-conjugated Anti-His6 antibody was added at a dilution of 1:100 (His Probe (H-3) HRP conjugate, Santa Cruz Biotechnology). The antibody-HRP conjugate was incubated for 60 minutes and the wells were washed 3 times in TBST and once in TBS. 50 μL of peroxidase substrate (KPL) was added and the resulting color change was quenched with 50 μL 1 M H2SO4. The A450 measured on a 96-well plate reader. […] The mean value for the triplicates was calculated and plotted and the error bars were generated from the standard error of the mean (GraphPad Prism).

Akt1-S473E-T308P = target: Akt1-S473E-T308P
From the text: FIG. 22A: Velocity vs. [Peptide substrate] with varying concentration of inhibitory triligand. FIG. 22B: Velocity vs. [ATP] with varying concentration of inhibitory triligand.
FIGS. 23A-23D show determination of Ki′ and inhibition mode for triligand with respect to peptide substrate. FIG. 23A: Plot of 1/KM(app) vs. [Triligand]. KM(app) were obtained from nonlinear regression analysis of velocity vs. [Peptide] curves obtained with varied concentrations of triligand (Graphpad). The error bars represent the standard error of KM(app) by nonlinear regression. 95% confidence intervals are shown as dotted lines. […] FIG. 23B: Plot of 1/Vmax(app) vs. [Triligand]. Values for Vmax(app) and standard error were obtained by nonlinear regression as described above. […] FIG. 23C: Dixon plot of 1/v vs. [Triligand] at various [Peptide]. Data from low peptide concentrations were removed to account for possible substrate depletion. […] FIG. 23D: Cornish-Bowden plot of [Peptide]/v vs. [Triligand] at various [Peptide]. The intersection of the lines gives the −Ki′.
FIG. 24A: Plot of 1/KM(app) vs. [Triligand]. KM(app) were obtained from nonlinear regression analysis of velocity vs. [ATP] curves obtained with varied concentrations of triligand (Graphpad). The error bars represent the standard error of KM(app) by nonlinear regression. […] FIG. 24B: Plot of 1/Vmax(app) vs. [Triligand]. […] FIG. 24C: Dixon plot of 1/v vs. [Triligand] at various [ATP]. Data from low ATP concentrations were removed due high counting error resulting from low counts per minute (cpm).
Two standard enzyme kinetic assays were carried out to determine the mode of Akt1 inhibition by the triligand (Segel 1975). For these assays, the kinase activity is measured under varying substrate and triligand concentrations. The resulting data can be interpreted so that the nature of the competition between the triligand and the substrate for the relevant kinase binding site is determined. For example, if the triligand and ATP competed for the same binding pocket, the maximum velocity (Vmax) of the kinase would be unchanged while the Michaelis constant (KM) would increase. The plots can also be used as a means of determining the inhibition constant (Ki) of the triligand.
Akt-S473E-T308P was prepared by incubating 75 μg Akt-S473E with 1 μg PDK1 (Sigma) in the presence of 500 μM ATP in 1× reaction buffer (25 mM Tris-Cl (pH=7.5), 10 mM MgCl2, 2 mM DTT, 1× protease inhibitors (Roche), 1× phosphatase inhibitors (Roche)). The phosphorylation reaction proceeded for 40 minutes at room temperature followed by addition of 25 mM EDTA. The quenched reaction was added to 40 μL Anti-FLAG M2 agarose (Sigma) and allowed to bind for 2 hr at 4° C. The resin was washed in FLAG Wash Buffer (20 mM HEPES (pH=7.4), 150 mM NaCl, 1× protease inhibitors (Roche), 1× phosphatase inhibitors (Roche)) and the Akt1-S473E-T308P eluted with FLAG Elution Buffer (FLAG wash buffer+0.15 mg/mL 3×FLAG peptide) for 30 minutes at room temperature. The concentration of protein was determined by Bradford assay.

Akt1 = experiment: Specificity ELISA, immobilized ligand probed with His-tagged kinases; design: species or system H. sapiens; conditions: A450 normalized to Akt1-S473E binding; kinase panel
Protocol: as §1, §2, §3, §4

Akt [3] = experiment: Immunoprecipitation of Akt from OVCAR3 cell lysates with immobilized ligands; type: binding; conditions: EGF and insulin induced or control, Western blot with pan-Akt antibody
Protocol: A representative 12% gel stained with Coomassie and imaged. Lane 1: Lysate, Lane 2: Anchor resin, Lane 3: Biligand resin, Lane 4: Triligand resin, Lane 5: 5G3 mAb resin.
After 18 hours at 4° C., resins were washed exhaustively, eluted with SDS-PAGE sample buffer, and analyzed by Western blotting. 1. Blank resin, 2. Anchor, 3. Biligand, 4. Triligand, 5. [5G3] mAb, L. lysate.
For the IP experiments, the anchor, biligand, and triligands were immobilized on streptavidin-agarose, and each resin was panned with OVCAR3 cell lysates obtained from untreated cells or cells stimulated with a combination of epidermal growth factor (EGF) and insulin.
OVCAR3 cells were grown in RPMI-1640 media containing 10% fetal bovine serum, penicillin, and streptomycin. Passage 4 cells were grown to ˜60% confluence and treated with insulin and EGF at final concentration of 10 μg/mL and 20 ng/mL respectively (induced) or mock treated (control). Cells were grown for an additional 24 hours and then lysed with lysis buffer (10 mM Tris-Cl (pH=7.5), 100 mM NaCl, 1% (v/v) Triton X-100, 0.1% SDS (w/v), 0.5% deoxycholate, 1 mM DTT, 1 mM EDTA, 1× PhosStop phosphatase inhibitors (Roche), 1× Complete protease inhibitors (Roche). Cell lysate protein concentrations were determined by Bradford assays. […]

Akt1-S473E = conditions: SPR, from kinetic parameters, 10° C., Akt1-S473E 9000 nM to 1 nM
Protocol: For this experiment, the biotinylated triligand was immobilized on a streptavidin-derivatized biacore chip and probed with Akt-S473E at concentrations ranging from 9 μM to 1 nM.
Triligand binding affinity was further analyzed by SPR using a Biacore T100. A Streptavidin Chip (Series S, G.E. Healthcare) was conditioned as recommended by the manufacturer. Biotinylated ligand was diluted into HBSP+ Buffer (G.E. Healthcare) to a final concentration of 100 nM and 137 RU was immobilized on the chip. Akt1-S473E was prepared as described previously and subjected to buffer exchange into HBSP+ using Zeba Desalting Columns (Pierce). Serial dilutions of the enzyme were made in HBSP+ buffer (9000 nM to 1 nM) and flowed over the chip at 50 μL/minute. Binding and dissociation were carried out at 10° C. with a contact time of 360 seconds, a dissociation time of 400 seconds, and a stabilization time of 200 seconds. The response was corrected using an unmodified reference flow cell. Kinetic constants were obtained from the sensograms and used to calculate the dissociation constant.

MEK1 = MEK1 (Homo sapiens, UniProt Q02750); conditions: A450 normalized to Akt1-S473E binding
Sequence of MEK1 (Q02750 68-361 limits assumed, species assumed): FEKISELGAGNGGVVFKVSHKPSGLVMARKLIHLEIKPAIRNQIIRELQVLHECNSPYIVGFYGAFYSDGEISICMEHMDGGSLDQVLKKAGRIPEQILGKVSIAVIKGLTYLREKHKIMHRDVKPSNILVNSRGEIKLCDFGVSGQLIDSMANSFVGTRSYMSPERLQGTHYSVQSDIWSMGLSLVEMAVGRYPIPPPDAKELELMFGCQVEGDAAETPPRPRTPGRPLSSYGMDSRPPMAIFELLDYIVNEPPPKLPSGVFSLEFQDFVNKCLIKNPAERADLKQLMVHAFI
Protocol: as §1, §2
as §3, with “After 10 minutes at 4° C., the wells were washed three times with Akt blocking buffer and blocked overnight in 5% non-fat milk.” left out
The wells were washed three times in Akt blocking buffer and 50 μL of active protein was applied to each well. […] The A450 measured on a 96-well plate reader. […] The mean value for the triplicates was calculated and plotted and the error bars were generated from the standard error of the mean (GraphPad Prism).

Akt [4] = target: T2, Akt (Homo sapiens, UniProt P31751); experiment: Detection of Akt from OVCAR3 cell lysate by anti-Ser474 Akt2 capture agents; type: binding
T2 construct: endogenous in cells; host or cells: OVCAR3
T2 sequence (P31751 whole entry): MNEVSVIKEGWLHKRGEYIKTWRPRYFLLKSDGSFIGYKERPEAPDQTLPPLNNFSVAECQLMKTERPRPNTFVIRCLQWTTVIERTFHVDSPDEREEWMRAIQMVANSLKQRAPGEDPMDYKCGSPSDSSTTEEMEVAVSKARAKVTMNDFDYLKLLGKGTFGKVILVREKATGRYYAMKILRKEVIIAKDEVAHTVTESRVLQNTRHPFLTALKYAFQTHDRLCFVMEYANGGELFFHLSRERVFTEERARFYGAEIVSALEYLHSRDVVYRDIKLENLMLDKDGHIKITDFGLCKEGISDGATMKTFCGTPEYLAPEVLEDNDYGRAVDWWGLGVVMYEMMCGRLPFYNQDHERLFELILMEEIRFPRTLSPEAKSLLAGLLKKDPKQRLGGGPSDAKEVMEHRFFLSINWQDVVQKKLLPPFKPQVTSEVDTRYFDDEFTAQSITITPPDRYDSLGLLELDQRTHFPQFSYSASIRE
From the text: The characteristics of this best ligand were improved through use of sequential in situ click chemistry, as described in Capture Agents and Related Compositions, Methods, and Systems CIT 5164-P; and Akt-Specific Capture Agents, Compositions, and Methods of Using and Making. CIT 5917-P, Agnew, et al., Angew. Chem. 121, p 5044-5048 (2009), and Millward, et al., J. Am. Chem. Soc. 133, 1820 (2011), incorporated herein by reference in their entireties. For these steps, the capture agent that was identified in Steps (1)-(4) was improved into a biligand (FIG. 36b), and then a triligand (FIG. 36c).

Akt2 = target: T3, Akt2 (Homo sapiens, UniProt P31751); experiment: Akt2 kinase activity assay, p-GSK-3a/b Western blot; type: biochemical; conditions: p-GSK-3a/b abundance, active Akt2
T3 construct: purchased Abcam
T3 sequence (P31751 whole entry, species assumed): as the sequence (P31751 whole entry) above
From the text: PCC compositions, developed using the epitope targeting strategy, make non-traditional enzyme inhibitors. If Akt2 is activated by phosphorylation of Ser474 then, in that state, it phosphorylates GSK-3a/b. If it is further activated via a steric effect, then it will produce more p-GSK-3a/b. If that same Akt2 is inhibited, then it will produce less p-GSK-3a/b. Thus, the signature of Akt inhibition (or activation) is read out as p-GSK-3a/b abundance, relative to the DMSO control. Assays are shown at right in the form of Western Blots. The DMSO column gives the baseline level. The n-terminal triligand the biligand, the dimer of the n-terminal triligand, and the commercial monoclonal antibody all activate Akt relative to DMSO. The c-terminal triligand inhibits Akt. The ‘hi’ and ‘low’ blots correspond to long and short development times, respectively. The Akt2 protein used for the inhibition assay is active Akt2 that is phosphorylated at Thr308, and is at least partially phosphorylated at Ser474, since the antibody for pSer474 detects the pSer474.

Akt [5] = experiment: Immunofluorescent imaging of Akt in fixed OVCAR3 cells; type: cell-based; conditions: unstimulated or EGF-treated
Protocol: OVCAR3 cells were grown on polylysine coated coverslips and treated with either 500 ng/mL EGF (Sigma) or vehicle control for 10 minutes. Cells were then fixed with 10% formaldehyde for 15 min at 37° C., washed with PBS, permeablized by incubating with 0.1% Triton X-100 for 10 min at room temperature, and blocked with 5% goat serum. Permeabilized cells were stained with either a fluorescein-conjugated Pan Akt antibody (R&D Systems IC2055F, 10 μg/mL) overnight or 1 μM fluorescein conjugated biligand for 1 hour. Images were acquired using a Zeiss Pascal 5 Laser Scanning Microscope (Caltech Biological Imaging Center) and surface plots were generated with ImageJ software (NIH). For this assay, Akt was expected to locate to the cell membrane following stimulation of a receptor tyrosine kinase such as epidermal growth factor receptor (EGFR) by its ligand (EGF). Images of unstimulated and stimulated cells clearly reveal that this was the case (FIG. 18).

CCC(C)[C@H](NC(=O)[C@H](CCCNC(=N)N)NC(=O)[C@H](CCC(=O)O)NC(=O)[C@H](Cc1cnc[nH]1)NC(=O)[C@H](CCCNC(=N)N)NC(=O)C(CCCCCCCCn1cc(CCCC(=O)NC(CCCCCCCCn2cc(C[C@H](NC(C)=O)C(=O)N[C@@H](Cc3ccccc3)C(=O)N[C@@H](Cc3c[nH]c4ccccc34)C(=O)N[C@@H](Cc3ccccc3)C(=O)N[C@@H](CC(C)C)C(=O)NC(CCCNC(=N)N)C(=O)NCC(N)=O)nn2)C(=O)N[C@H](C(=O)N[C@@H](Cc2ccccc2)C(=O)N[C@@H](Cc2ccc(O)cc2)C(=O)N[C@@H](CCCNC(=N)N)C(=O)N[C@@H](CC(C)C)C(=O)NCC(=O)N[C@@H](Cc2ccc(O)cc2)C(=O)NCCNC(=O)CCCCC2SCC3NC(=O)NC32)C(C)C)nn1)NC(C)=O)C(N)=O (some centres unmarked) [triligand]
overlap of binding site with anti-Akt1 antibody (Akt-S473E [1]): may partially overlap
affinity gain (Akt-S473E [2]): 2-3 fold
binding to GSK3β (GSK3β): significantly reduced
Ki (Akt1-S473E-T308P; V vs. [ATP], variable [Triligand], Dixon plot, mean ± standard deviation): 4000 nM
Ki (Akt1-S473E-T308P; V vs. [Peptide], variable [Triligand], Dixon plot, mean ± standard deviation): 2600 nM
Ki (Akt1-S473E-T308P; read-out: X-intercept of 1/Vmax(app) vs. [Triligand], varied ATP, wide error range based on the 95% CI): 5800 nM
Ki (Akt1-S473E-T308P; read-out: X-intercept of 1/Vmax(app) vs. [Triligand], varied peptide substrate): 1700 nM
X-intercept (−Ki′) of 1/KM(app) vs. [Triligand] (Akt1-S473E-T308P; varied peptide substrate): 3600 nM
Inhibition mode (Akt1-S473E-T308P; with respect to ATP): Noncompetitive
Inhibition mode (Akt1-S473E-T308P; with respect to peptide substrate): Uncompetitive
specificity / selectivity for Akt1 (Akt1): selectivity for Akt1 is clearly enhanced
immunoprecipitation of Akt (Akt [3]): somewhat increased immunoprecipitation of Akt relative to the biligand in induced cell lysates but not in the non-induced control cell lysate
Kd (Akt1-S473E): 200 nM
off-target binding to MEK1 (MEK1): completely eliminated

monoligand: peptide wkvkl (SEQ ID NO:4) coupled to Ac2-Tz4-PEG2-Biotin; targeted against Ser474 of Akt2 ([dW][dK][dV][dK][dL]-NH2; not fully specified (N-terminus); printed as wkvkl; also: coupled to Ac2-Tz4-PEG2-Biotin)
detection of Akt from cell lysate (Akt [4]): able to detect Akt from cell lysate

dimer of the n-terminal triligand: dimerized n-terminal triligand targeted against Ser474 of Akt2 (FIG. 36E) (peptide 1 [dPra][dW][dK][dV][dK][dL]; peptide 2 FYGNH; peptide 3 YYRFG; numbers in words are those of the source; also: dimer of triligand, chains 2 and 3 stereochemistry not given here)
effect on Akt kinase activity relative to DMSO (Akt2): activate Akt

fluorescein-conjugated biligand: biligand with fluorescein derivative on the amino terminus of the secondary peptide (FIG. 17) (chain 1 C8N3-VFYRLGY-NH2; chain 2 FWFLRG-NH2; triazole I:N-II:N; not fully specified (N-terminus); reading uncertain; also: triazole linkage between chains, fluorescein on amino terminus of secondary peptide)
imaging of Akt localisation (Akt [5]): distinguishes cytoplasmic or membrane-bound AKT

From US12480950B2, “AKT-specific capture agents, compositions, and methods of using and making” (California Institute of Technology, priority 2011, dated 2025)
